From US9844550B2, “Phtalazinone derivatives and manufacturing process thereof” (ILDONG PHARM CO., LTD., priority 2013, dated 2017)

What was measured:
[1] = target: T1, Tankyrase-1 (Homo sapiens, UniProt O95271); test: Tankyrase-1 enzyme assay; format: biochemical; conditions: 1 hr at room temperature, chemiluminescent readout
T1 sequence (O95271 1-1327): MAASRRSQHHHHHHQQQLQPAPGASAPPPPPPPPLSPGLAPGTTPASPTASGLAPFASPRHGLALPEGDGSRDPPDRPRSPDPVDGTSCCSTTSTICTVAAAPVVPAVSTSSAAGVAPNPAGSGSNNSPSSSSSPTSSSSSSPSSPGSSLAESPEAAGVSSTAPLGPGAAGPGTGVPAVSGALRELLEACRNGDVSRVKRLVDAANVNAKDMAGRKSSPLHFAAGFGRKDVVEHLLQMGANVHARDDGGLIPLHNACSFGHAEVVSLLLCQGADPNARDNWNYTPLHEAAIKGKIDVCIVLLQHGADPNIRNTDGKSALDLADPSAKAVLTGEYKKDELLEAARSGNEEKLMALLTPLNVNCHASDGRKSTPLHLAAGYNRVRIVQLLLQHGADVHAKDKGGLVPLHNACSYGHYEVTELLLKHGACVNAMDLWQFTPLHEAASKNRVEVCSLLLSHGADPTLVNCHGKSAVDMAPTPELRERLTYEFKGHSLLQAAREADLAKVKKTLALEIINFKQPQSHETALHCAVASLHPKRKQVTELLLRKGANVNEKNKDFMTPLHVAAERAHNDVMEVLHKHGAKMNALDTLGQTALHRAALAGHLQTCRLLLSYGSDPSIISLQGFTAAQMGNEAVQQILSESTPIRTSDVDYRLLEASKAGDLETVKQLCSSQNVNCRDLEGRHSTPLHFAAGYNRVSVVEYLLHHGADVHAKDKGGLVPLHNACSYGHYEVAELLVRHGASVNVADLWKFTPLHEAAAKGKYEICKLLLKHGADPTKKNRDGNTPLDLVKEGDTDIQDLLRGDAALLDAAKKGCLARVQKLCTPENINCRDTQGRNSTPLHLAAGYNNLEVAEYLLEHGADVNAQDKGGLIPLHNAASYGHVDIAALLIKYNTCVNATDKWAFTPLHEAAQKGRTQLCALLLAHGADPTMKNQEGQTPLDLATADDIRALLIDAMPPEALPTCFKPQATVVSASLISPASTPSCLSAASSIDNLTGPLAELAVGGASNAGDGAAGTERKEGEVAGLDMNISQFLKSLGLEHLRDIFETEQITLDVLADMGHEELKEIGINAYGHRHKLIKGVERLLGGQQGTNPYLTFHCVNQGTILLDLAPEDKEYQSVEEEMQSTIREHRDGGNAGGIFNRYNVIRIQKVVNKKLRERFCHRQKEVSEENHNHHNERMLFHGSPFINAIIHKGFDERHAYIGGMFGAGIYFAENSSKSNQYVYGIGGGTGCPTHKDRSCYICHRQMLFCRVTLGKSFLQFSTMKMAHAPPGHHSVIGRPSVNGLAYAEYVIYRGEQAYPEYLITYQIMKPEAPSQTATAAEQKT
Method: 5. Tankyrase-1 Enzyme Assay
Tankyrase-1 enzyme assay was performed to determine Tankyrase-1 inhibitory activity of compounds in the present invention. The enzymatic reaction was conducted by coating the plate with substrates of tankyrase-1, and then the plate was washed. Compounds in the present invention serially diluted in DMSO were added to the reaction buffer activating tankyrase-1, and incubated for 1 hr at room temperature. After stopping the reaction, the plate was washed, and streptavidin-HRP was added to each well. IC50 was calculated by adding chemiluminescent substrate and immediately reading the sample in a microplate reader (Biotek).

[2] = system: MDA-MB-436 breast cancer cell line; test: Cell viability assay (MDA-MB-436); format: cell-based; conditions: Homo sapiens, 144 h; MDA-MB-436 cells, treated 6 days
Procedure, shortened: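 MDA-MB-436 breast cancer cells in DMEM/F12 with 10% FBS, treated 24 h after seeding with graded compound concentrations for 6 days at 37 °C, 5% CO2, medium changed every 3 days. Viability read with a fluorescence reagent; IC50 derived.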

[3] = Mouse pharmacokinetics; format: in vivo; set-up: concentration or dose not given beside the values; conditions: Balb/c male mice, blood samples 15 to 1140 min, LC-MS/MS
Method: To evaluate the pharmacokinetics test, the invented compounds (from I-25 to I-1171) were determined as follows. Blood samples are collected at 15, 30, 60, 120, 240, 480, 1140 min. Quantification is by using a LC-MS/MS method specific to the selected compound. Pharmacokinetics parameters are calculated using WinNonLinnon compartmental analysis software.

[4] = Solubility test in water; format: physicochemical; conditions: 25° C., atmospheric pressure
Method: To evaluate the solubility, the invented compounds (I-159, I-161 and I-171) was determined as follows. The compounds was dissolve in water (1 mL, 10 mL and 100 mL) at 25° C. under an atmospheric pressure.

[5] = system: Capan-1 Human pancreatic cancer cells; test: In vivo antitumoral efficacy, Capan-1 subcutaneous xenograft; conditions: Capan-1 xenograft in Balb/c nude mice
Method: To evaluate the in vivo antitumoral efficacy, the invented compounds (I-80˜171) was determined as a result to follows.
Capan-1 Human pancreatic cancer cells were established as subcutaneous xenografts by injection of 8×10^6 cells into the flanks of adult female Balb/c nude mice. Mice with established tumors (160-250 mm^3) were selected for study (n=6/treatment group). The test compounds were formulated in DW and administered orally (po) at a dose of 30˜200 mg/kg. The vehicle alone was administered to control groups. Animals were dosed 5 days per week (Monday through Friday) for 3 consecutive weeks.
Animals were weighed and tumor size was determined twice weekly by caliper measurements, and tumor volumes were calculated (volume=[…] (mm^3), where l and w refer to the larger and smaller dimensions collected at each measurement). The mean tumor volumes of each group were calculated. The change in mean treated tumor volume was divided by the change in mean control tumor volume, multiplied by 100 and subtracted from 100% to give the tumor growth inhibition for each group.

[6] = system: LNCaP prostate cancer cell line; test: Cell viability assay (LNCaP); format: cell-based; conditions: Homo sapiens, 264 h; LNCaP cells, treated 11 days
Method: 4. Cell Viability Assay (LNCaP)
(§1) Cell viability assay was performed by using LNCaP cell line to measure cytotoxicity of compounds in the present invention. LNCaP prostate cancer cell line was seeded into 96-well plates at 37° C. under 5% CO2 atmosphere using RPMI-1640 (Hyclone) containing 10% FBS (Hyclone). After 24 hr incubation, cells were treated with the invented compounds at various concentrations for 11 days. The medium was changed every 3 to 4 day. 11 days later, A fluorescence reagent was used to determine the IC50 values.

[7] = system: Capan-1 pancreatic cancer cell line; test: Cell viability assay (Capan-1); format: cell-based; conditions: Homo sapiens, 240 h; Capan-1 cells, treated 10 days
Method: 3. Cell Viability Assay (Capan-1)
as §1, with “Capan-1” for “LNCaP”, “Capan-1 pancreatic” for “LNCaP prostate”, “IMDM (Sigma)” for “RPMI-1640 (Hyclone)”, “10” for “11”, “After 7-day incubation, the” for “The”, “changed. 10” for “changed every 3 to 4 day. 11”

| Structure (SMILES) | IC50 [1] [nM] | IC50 [2] [nM] | AUC [3] [ng·h/mL] | IC50 [6] [nM] | IC50 [7] [nM] | further results |
| --- | --- | --- | --- | --- | --- | --- |
| O=C(c1cc(Cc2n[nH]c(=O)c3ccccc23)ccc1F)N1CC[C@@H](Nc2ncc(Br)cn2)C1 [Compound I-130, (R)-4-(3-(3-((5-bromopyrimidin-2-yl)amino)pyrrolidine-1-carbonyl)-4-fluorobenzyl)phthalazin-1(2H)-one] | 50 to 300 | ≤ 5 | – | – | – | – |
| CC(C)(C)NCC1CN(C(=O)c2cc(Cc3n[nH]c(=O)c4ccccc34)ccc2F)C1 [Compound I-147, 4-(3-(3-((tert-butylamino)methyl)azetidine-1-carbonyl)-4-fluorobenzyl)phthalazin-1(2H)-one] | > 1000 | 300 to 1000 | – | – | – | – |
| CC(C)CNC1CN(C(=O)c2cc(Cc3n[nH]c(=O)c4ccccc34)ccc2F)C1.Cl [Compound I-161, 4-(4-fluoro-3-(3-(isobutylamino)azetidine-1-carbonyl)benzyl)phthalazin-1(2H)-one hydrochloride] | – | – | 1020 | – | – | Solubility class in words [4]: Sparingly soluble |
| Cl.O=C(c1cc(Cc2n[nH]c(=O)c3ccccc23)ccc1F)N1CC(CNC2CC2)C1 [Compound I-171, 4-(3-(3-((cyclopropylamino)methyl)azetidine-1-carbonyl)-4-fluorobenzyl)phthalazin-1(2H)-one hydrochloride] | – | – | 673 | – | – | Solubility class in words [4]: Sparingly soluble; % TGI ([5]; 30 mg/kg po qd x 5, 3 consecutive weeks): 42.1%; % TGI ([5]; 60 mg/kg po qd x 5, 3 consecutive weeks): 69.7% |
| O=C(c1cc(Cc2n[nH]c(=O)c3ccccc23)ccc1F)N1CC(CNc2ccccc2)C1 [Compound I-150, 4-(4-fluoro-3-(3-((phenylamino)methyl)azetidine-1-carbonyl)benzyl)phthalazin-1(2H)-one] | > 1000 | 50 to 300 | – | – | – | – |
| O=C(c1cc(Cc2n[nH]c(=O)c3ccccc23)ccc1F)N1CC(NCC2CC2)C1 [Compound I-33, 4-(3-(3-((cyclopropylmethyl)amino)azetidine-1-carbonyl)-4-fluorobenzyl)phthalazin-1(2H)-one] | > 1000 | ≤ 5 | 1020 | 300 to 1000 | 300 to 1000 | – |
| O=C(c1cc(Cc2n[nH]c(=O)c3ccccc23)ccc1F)N1CC(Nc2ccc(Cl)nn2)C1 [Compound I-114, 4-(3-(3-((6-chloropyridazin-3-yl)amino)azetidine-1-carbonyl)-4-fluorobenzyl)phthalazin-1(2H)-one] | > 1000 | 300 to 1000 | – | 5 to 50 | – | – |

Further lines, with some results ahead:

| IC50 [1] [nM] | IC50 [2] [nM] | AUC [3] [ng·h/mL] | IC50 [6] [nM] | IC50 [7] [nM] | Structure (SMILES) | further results |
| --- | --- | --- | --- | --- | --- | --- |
| – | – | 472 | – | – | CC(C)NC1CN(C(=O)c2cc(Cc3n[nH]c(=O)c4ccccc34)ccc2F)C1.Cl [Compound I-159, 4-(4-fluoro-3-(3-(isopropylamino)azetidine-1-carbonyl)benzyl)phthalazin-1(2H)-one hydrochloride] | Solubility class in words [4]: Sparingly soluble; % TGI ([5]; 100 mg/kg po qd x 5, 3 consecutive weeks): 59.4%; % TGI ([5]; 200 mg/kg po qd x 5, 3 consecutive weeks): 69.4% |
| > 1000 | ≤ 5 | 472 | 50 to 300 | 50 to 300 | O=C(c1cc(Cc2n[nH]c(=O)c3ccccc23)ccc1F)N1CC(NC2CCCC2)C1 [Compound I-27, 4-(3-(3-(cyclopentylamino)azetidine-1-carbonyl)-4-fluorobenzyl)phthalazin-1(2H)-one] | – |
| > 1000 | ≤ 5 | – | 50 to 300 | 50 to 300 | CC(C)NC1CN(C(=O)c2cc(Cc3n[nH]c(=O)c4ccccc34)ccc2F)C1 [Compound I-32, 4-(4-fluoro-3-(3-(isopropylamino)azetidine-1-carbonyl)benzyl)phthalazin-1(2H)-one] | – |
| 300 to 1000 | 5 to 50 | 586 | 300 to 1000 | 300 to 1000 | N#CC1(NC2CN(C(=O)c3cc(Cc4n[nH]c(=O)c5ccccc45)ccc3F)C2)CCC1 [Compound I-99, 1-((1-(2-fluoro-5-((4-oxo-3,4-dihydrophthalazin-1-yl)methyl)benzoyl)azetidin-3-yl)amino)cyclobutanecarbonitrile] | – |
